Test results from the Kinase Knowledgebase extract (Sharma et al. 2016).
pIC50: −log10 of the molar value.

What was measured:
MAPK14 (human) [1] = biological target: MAPK14 (human) (UniProt Q16539); assay: Inhibition of p38 MAP Kinase in Whole Blood
MAPK14 (human) [2] = biological target: MAPK14 (human) (UniProt Q16539); assay: Inhibition of TNF-alpha Release in THP-1 Cell; details: thp1
MAPK14 (mouse) = assay: Inhibition of MAPK14 Kinase Activity

MAPK14 (human), sequence (Q16539 whole entry, looked up): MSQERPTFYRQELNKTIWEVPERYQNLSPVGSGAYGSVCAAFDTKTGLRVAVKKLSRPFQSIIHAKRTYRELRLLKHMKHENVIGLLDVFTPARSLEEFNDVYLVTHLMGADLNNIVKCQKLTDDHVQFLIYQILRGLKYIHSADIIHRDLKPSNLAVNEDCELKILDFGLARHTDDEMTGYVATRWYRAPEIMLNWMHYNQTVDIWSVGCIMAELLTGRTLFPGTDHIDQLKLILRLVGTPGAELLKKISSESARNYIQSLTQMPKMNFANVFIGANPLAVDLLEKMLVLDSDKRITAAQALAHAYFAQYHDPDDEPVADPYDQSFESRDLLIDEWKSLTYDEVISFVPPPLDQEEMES

Row | pIC50 (MAPK14 (human) [1]) | pIC50 (MAPK14 (human) [2]) | pIC50 (MAPK14 (mouse)) | SMILES
1 | 6.77 |  |  | CC(C)N1CCN(c2cc3c(nc2Sc2ccc(F)cc2F)CNC(=O)N3c2c(Cl)cccc2Cl)CC1
2 | 7.29 | 8.92 |  | O=C1NCc2nc(Sc3ccc(F)cc3F)c(N3CC4CC3CN4CC3CC3)cc2N1c1c(Cl)cccc1Cl (centres undefined)
3 |  | 6.30 |  | O=C1NCc2nc(Sc3ccc(F)cc3F)c(N3CCCCC3)cc2N1c1c(Cl)cccc1Cl
4 | 7.85 | 9.15 |  | CN(C)CCN1CCN(c2cc3c(nc2Sc2ccc(F)cc2F)CNC(=O)N3c2c(Cl)cccc2Cl)CC1
5 | 7.19 | 8.80 |  | CC(C)N1CC2CC1CN2c1cc2c(nc1Sc1ccc(F)cc1F)CNC(=O)N2c1c(Cl)cccc1Cl (centres undefined)
6 | 7.14 | 7.60 |  | CC1CN(c2cc3c(nc2Sc2ccc(F)cc2F)CNC(=O)N3c2c(Cl)cccc2Cl)CC(C)O1 (centres undefined)
7 |  | 6.30 |  | O=C1NCc2nc(Sc3ccc(F)cc3F)c(N3CC4CCC3C4)cc2N1c1c(Cl)cccc1Cl (centres undefined)
8 | 7.38 | 8.89 |  | CCN1CC2CC1CN2c1cc2c(nc1Sc1ccc(F)cc1F)CNC(=O)N2c1c(Cl)cccc1Cl (centres undefined)
9 | 7.95 | 8.82 |  | O=C1NCc2nc(Sc3ccc(F)cc3F)c(N3CC4CC3CN4)cc2N1c1c(Cl)cccc1Cl (centres undefined)
10 | 7.77 | 8.05 |  | O=C1NCc2nc(Sc3ccc(F)cc3F)c(NC3CCNCC3)cc2N1c1c(Cl)cccc1Cl
11 | 7.20 |  |  | O=C1NCc2nc(Sc3ccc(F)cc3F)c(OC3CCNCC3)cc2N1c1c(Cl)cccc1Cl
12 | 6.40 | 7.66 |  | O=C1NCc2nc(Sc3ccc(F)cc3F)c(N3CCOCC3)cc2N1c1c(Cl)cccc1Cl
13 | 8.05 | 8.70 |  | O=C1NCc2nc(Sc3ccc(F)cc3F)c(N3CCN(CCN4CCCC4)CC3)cc2N1c1c(Cl)cccc1Cl
14 | 6.66 | 8.09 |  | O=C1NCc2nc(Sc3ccc(F)cc3F)c(N3CC4CC3CN4C3CC3)cc2N1c1c(Cl)cccc1Cl (centres undefined)
15 |  |  | 6.22 | O=c1ncc2nc(Sc3ccc(F)cc3F)ccc2n1-c1c(Cl)cccc1Cl
16 | 7.70 | 8.30 |  | O=C1NCc2nc(Sc3ccc(F)cc3F)c(N3CCNCC3)cc2N1c1c(Cl)cccc1Cl
17 | 6.03 | 8.14 |  | O=C1NCc2nc(Sc3ccc(F)cc3F)c(N3CCC(CCN4CCCC4)CC3)cc2N1c1c(Cl)cccc1Cl
